{"source": "PubChem BioAssay AID328", "about": "(DTP/NCI, 2004)", "tested_on": "BDF1 mice, P388 leukemia ip, median survival T/C", "experiment": "NCI In Vivo Anticancer Drug Screen. Data for tumor model P388 Leukemia (intraperitoneal) in B6D2F1 (BDF1) mice", "conditions": "endpoint: median survival time, vehicle: saline, higher = longer survival", "summary_of_the_method": "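Transplantable tumour in mice; compound vs vehicle dosing; survival scored; ratio of treated to control reported.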", "note": "Where “and” joins values, the source holds several entries; their conditions need not be identical. Identical values can stand only once. Toxic doses and inconclusive results are not listed."}
{"smiles": "Nc1ncnc2c1ccn2C1OC(CO)C(O)C1O", "note": "(stereo not drawn)", "values": [{"measurement": "T/C", "setting": "dose: 0.19 mg/kg/injection, schedule: Q03DX005 (ip)", "value": "100 % of control"}, {"measurement": "T/C", "setting": "dose: 0.25 mg/kg/injection, schedule: Q02DX005 (ip)", "value": "108 % of control"}, {"measurement": "T/C", "setting": "dose: 0.25 mg/kg/injection, schedule: Q#A X002 (ip)", "value": "108 % of control"}, {"measurement": "T/C", "setting": "dose: 0.31 mg/kg/injection, schedule: Q01DX010 (ip)", "value": "122 % of control"}, {"measurement": "T/C", "setting": "dose: 0.38 mg/kg/injection, schedule: Q03DX005 (ip)", "value": "104 % of control"}, {"measurement": "T/C", "setting": "dose: 0.5 mg/kg/injection, schedule: Q01DX006 (iv)", "value": "95 % of control"}, {"measurement": "T/C", "setting": "dose: 0.5 mg/kg/injection, schedule: Q01DX010 (oral)", "value": "109 % of control"}, {"measurement": "T/C", "setting": "dose: 0.5 mg/kg/injection, schedule: Q02DX004 (im)", "value": "104 % of control"}, {"measurement": "T/C", "setting": "dose: 0.5 mg/kg/injection, schedule: Q02DX005 (ip)", "value": "112 % of control"}, {"measurement": "T/C", "setting": "dose: 0.5 mg/kg/injection, schedule: Q04DX003 (ip)", "value": "112 % of control"}, {"measurement": "T/C", "setting": "dose: 0.5 mg/kg/injection, schedule: Q07DX002 (ip)", "value": "112 % of control"}, {"measurement": "T/C", "setting": "dose: 0.5 mg/kg/injection, schedule: Q#A X002 (ip)", "value": "112 % of control"}, {"measurement": "T/C", "setting": "dose: 0.75 mg/kg/injection, schedule: Q03DX005 (ip)", "value": "118 % of control"}, {"measurement": "T/C", "setting": "dose: 1.0 mg/kg/injection, schedule: Q01DX001 (ip)", "value": "108 % of control"}, {"measurement": "T/C", "setting": "dose: 1.0 mg/kg/injection, schedule: Q01DX006 (iv)", "value": "95 % of control"}, {"measurement": "T/C", "setting": "dose: 1.0 mg/kg/injection, schedule: Q01DX010 (ip)", "value": "150 % of control"}, {"measurement": "T/C", "setting": "dose: 1.0 mg/kg/injection, schedule: Q01DX010 (oral)", "value": "100 % of control"}, {"measurement": "T/C", "setting": "dose: 1.0 mg/kg/injection, schedule: Q01DX010 (sc)", "value": "91 % of control and 104 % of control"}, {"measurement": "T/C", "setting": "dose: 1.0 mg/kg/injection, schedule: Q02DX004 (im)", "value": "91 % of control"}, {"measurement": "T/C", "setting": "dose: 1.0 mg/kg/injection, schedule: Q04DX003 (ip)", "value": "116 % of control"}, {"measurement": "T/C", "setting": "dose: 1.0 mg/kg/injection, schedule: Q07DX002 (ip)", "value": "116 % of control"}, {"measurement": "T/C", "setting": "dose: 1.5 mg/kg/injection, schedule: Q03DX005 (ip)", "value": "154 % of control"}, {"measurement": "T/C", "setting": "dose: 1.5 mg/kg/injection, schedule: Q03DX010 (ip)", "value": "172 % of control"}, {"measurement": "T/C", "setting": "dose: 1.75 mg/kg/injection, schedule: Q07DX002 (ip)", "value": "150 % of control"}, {"measurement": "T/C", "setting": "dose: 2.0 mg/kg/injection, schedule: Q01DX001 (ip)", "value": "116 % of control"}, {"measurement": "T/C", "setting": "dose: 2.0 mg/kg/injection, schedule: Q01DX006 (iv)", "value": "91 % of control"}, {"measurement": "T/C", "setting": "dose: 2.0 mg/kg/injection, schedule: Q01DX010 (im)", "value": "104 % of control"}, {"measurement": "T/C", "setting": "dose: 2.0 mg/kg/injection, schedule: Q01DX010 (ip)", "value": "108 % of control"}, {"measurement": "T/C", "setting": "dose: 2.0 mg/kg/injection, schedule: Q01DX010 (oral)", "value": "100 % of control"}, {"measurement": "T/C", "setting": "dose: 2.0 mg/kg/injection, schedule: Q01DX010 (sc)", "value": "100 % of control and 113 % of control"}, {"measurement": "T/C", "setting": "dose: 2.0 mg/kg/injection, schedule: Q02DX004 (im)", "value": "100 % of control"}, {"measurement": "T/C", "setting": "dose: 2.0 mg/kg/injection, schedule: Q04DX003 (ip)", "value": "120 % of control"}, {"measurement": "T/C", "setting": "dose: 2.0 mg/kg/injection, schedule: Q07DX002 (ip)", "value": "116 % of control"}, {"measurement": "T/C", "setting": "dose: 2.0 mg/kg/injection, schedule: Q#A X002 (ip)", "value": "95 % of control"}, {"measurement": "T/C", "setting": "dose: 3.0 mg/kg/injection, schedule: Q03DX010 (ip)", "value": "159 % of control"}, {"measurement": "T/C", "setting": "dose: 4.0 mg/kg/injection, schedule: Q01DX010 (im)", "value": "104 % of control"}, {"measurement": "T/C", "setting": "dose: 4.0 mg/kg/injection, schedule: Q01DX010 (sc)", "value": "112 % of control and 113 % of control"}, {"measurement": "T/C", "setting": "dose: 4.0 mg/kg/injection, schedule: Q02DX004 (im)", "value": "100 % of control"}, {"measurement": "T/C", "setting": "dose: 4.0 mg/kg/injection, schedule: Q04DX003 (ip)", "value": "100 % of control"}, {"measurement": "T/C", "setting": "dose: 4.0 mg/kg/injection, schedule: Q07DX002 (ip)", "value": "116 % of control"}, {"measurement": "T/C", "setting": "dose: 7.0 mg/kg/injection, schedule: Q01DX001 (ip)", "value": "150 % of control"}, {"measurement": "T/C", "setting": "dose: 8.0 mg/kg/injection, schedule: Q01DX001 (oral)", "value": "92 % of control"}, {"measurement": "T/C", "setting": "dose: 8.0 mg/kg/injection, schedule: Q01DX010 (im)", "value": "150 % of control"}, {"measurement": "T/C", "setting": "dose: 8.0 mg/kg/injection, schedule: Q01DX010 (oral)", "value": "91 % of control"}, {"measurement": "T/C", "setting": "dose: 8.0 mg/kg/injection, schedule: Q01DX010 (sc)", "value": "118 % of control"}, {"measurement": "T/C", "setting": "dose: 16.0 mg/kg/injection, schedule: Q01DX001 (oral)", "value": "92 % of control"}, {"measurement": "T/C", "setting": "dose: 28.0 mg/kg/injection, schedule: Q01DX001 (ip)", "value": "118 % of control"}, {"measurement": "T/C", "setting": "dose: 31.5 mg/kg/injection, schedule: Q#A X020 (ip)", "value": "104 % of control"}, {"measurement": "T/C", "setting": "dose: 62.5 mg/kg/injection, schedule: Q#A X020 (ip)", "value": "109 % of control"}, {"measurement": "T/C", "setting": "dose: 125.0 mg/kg/injection, schedule: Q#A X020 (ip)", "value": "118 % of control"}, {"measurement": "T/C", "setting": "dose: 63.0 micrograms/kg/injection, schedule: Q01DX010 (ip)", "value": "109 % of control"}, {"measurement": "T/C", "setting": "dose: 125.0 micrograms/kg/injection, schedule: Q01DX010 (ip)", "value": "104 % of control"}, {"measurement": "T/C", "setting": "dose: 250.0 micrograms/kg/injection, schedule: Q01DX010 (ip)", "value": "104 % of control"}]}
